Literature values, collected in patent US5990317A, “2-(1H-4(5)-imidazoyl) cyclopropyl compounds” (Gliatech, Inc., priority 1998, dated 1999).
Read-outs that look alike come from different tables or passages of the source.

Key:
[1] = test system: spontaneous locomotor activity, grooming and exploratory behavior; conditions: intraventricular, saline and pentobarbital-treated rats; cited from earlier work
arousal EEG pattern = conditions: intraventricular, rabbits; cited from earlier work
histamine = conditions: in vivo; cited from earlier work
H3 receptor [2] = conditions: cat; cited from earlier work
[3] = test system: electrically-induced convulsions; conditions: cited from earlier work
H3 receptor [4] = conditions: rats; cited from earlier work

NCCc1c[nH]cn1 [histamine]
spontaneous locomotor activity, grooming, and exploratory behavior [1]: increased spontaneous locomotor activity, grooming and exploratory behavior
arousal EEG pattern (arousal EEG pattern): induces the appearances of an arousal EEG pattern

S=C(NC1CCCCC1)N1CCC(c2cnc[nH]2)CC1 [thioperamide]
synthesis and release of histamine (histamine): increase in synthesis and release of histamine
wakefulness (H3 receptor [2]): enhanced wakefulness in a dose-dependent fashion
durations of every convulsive phase ([3]; electrically-induced convulsions): significantly and dose-dependently decrease the durations of every convulsive phase
electroconvulsive threshold ([3]; in vivo): increase the electroconvulsive threshold
slow wave and REM sleep (H3 receptor [4]): decrease slow wave and REM sleep
wakefulness (H3 receptor [4]): increase wakefulness
